In article PMC10897196, “Structure–activity characteristics of phenylalanine analogs selectively transported by L-type amino acid transporter 1 (LAT1)” (Scientific Reports, 2024):
Several values for one entry are separate records, joined by “and”; a condition that tells them apart may be missing. Equal values may be shown once.

How the values were obtained:
human LAT1 [1] = target: T1, human LAT1 (Homo sapiens, UniProt Q01650); test: Inhibition of L-[14C]leucine uptake in HEK293-hLAT1 cells; type: cell-based; conditions: for Inhibition of LAT1-mediated L-[14C]leucine uptake (in words, rank order): 1 μM L-[14C]leucine, 1 min, compounds at 10, 30, 100 μM
T1 construct: expressed in transfected cells
Text: (§1) In this study, we used the HEK293 cells stably expressing human LAT1 or human LAT2, which form a heterodimeric complex with endogenous 4F2hc (CD98hc), required for plasma membrane localization. We first explored the impact of halogen group positioning in the benzene ring of Phe (Fig. 1) on its interaction with LAT1 and LAT2. […] We conducted inhibition experiments to measure the uptake of L-[^14C]leucine by LAT1 and L-[^14C]alanine by LAT2 in the presence or absence of Phe derivatives with an iodo group at position 2, 3, or 4 in the benzene ring.
(§2) The inhibition experiments were performed as described previously. HEK293-hLAT1 (1.5 × 10^5 cells/well) or HEK293-hLAT2 (2 × 10^5 cells/well) cells were plated onto poly-D-lysine-coated 24-well plates (Corning, New York, USA). Following a 2-day culture period, the uptake of 1 μM L-[^14C]leucine or L-[^14C]alanine was measured for 1 min in the absence or presence of non-radiolabeled test compounds at concentrations of 10, 30, and 100 μM. Radioactivity was quantified using a β-scintillation counter (LSC-3100; Aloka, Tokyo, Japan), and protein concentrations were determined with a Micro BCA Protein Assay Kit (Thermo Fisher Scientific, Rockford, IL). To calculate Ki values, the concentration-dependent uptake of L-[^14C]leucine or L-[^14C]alanine was analyzed in the presence and absence of test compounds[49]. The data were plotted against substrate concentration and fitted to Michaelis–Menten kinetics. Ki values were derived using nonlinear regression analysis with the enzyme kinetics inhibition module in GraphPad Prism software (Version 10.0.2; GraphPad Software Inc., San Diego, CA, USA).

[2] = Tissue accumulation (plasma, tumor, small intestine) in B16-F10 tumor-bearing mice, HPLC; type: in vivo
Procedure: Female C57BL/6J mice were subcutaneously injected with 2 × 10^6 B16-F10 cells. The cells were prepared in a mixture containing a 1:1 volume ratio of phosphate-buffered saline (PBS) and Matrigel (Corning, New York, USA), with the total injection volume being 200 μL, administered into the dorsal flank. Tumor growth was measured bi-daily using calipers until tumors reached a size of approximately 300 ~ 500 mm^3, at which point they were deemed palpable. […] Blood samples were collected at 30 and 60 min post-administration. Then both the tumors and small intestines were excised and weighed for subsequent analysis by HPLC.
(§3) HPLC analyses were conducted as previously described. In brief, tumors and small intestines were homogenized in ice-cold PBS (3 times the tissue weight, v/w). The homogenates were then centrifuged at 15,000 ×g for 40 min at 4 °C. A 10 μL aliquot of the tissue supernatant or plasma was mixed with 190 μL of acetonitrile (MeCN) to precipitate proteins. This mixture was subsequently centrifuged at 15,000 ×g for 30 min at 4 °C. The resulting supernatant (100 μL) was dried, and the residue was reconstituted in 20 μL of 400 mM sodium borate (pH 8.0). Finally, 5 μL of 40 mM 4-fluoro-7-nitro-2,1,3-benzoxadiazole (NBD-F) in MeCN was added for fluorescence derivatization. HPLC analysis was carried out using a NANOSPACE SI-2 HPLC system (Shiseido, Tokyo, Japan) equipped with a fluorescence detector. […] The mobile phase consisted of MeCN, water, and trifluoroacetic acid (TFA) in a 27.5:72.5:0.05 (v/v/v) ratio, delivered at a flow rate of 200 μL/min.

[3] = Plasma concentration-time profile in normal mice after intravenous administration; type: in vivo; conditions: C57BL/6J mice, i.v., 15, 30, 60, 120 min; 2-F-Tyr 15.6 mg/kg, bicyclic-Phe 15 mg/kg
Procedure: The blood samples were collected at 15, 30, 60, and 120 min post-administration into lithium heparin-coated tubes (BD, New Jersey, USA) and then centrifuged at 1,500 ×g for 10 min at 23 °C. The resulting plasma was stored at −80 °C pending analysis by HPLC.
as §3

human LAT2 [4] = target: T2, human LAT2 (Homo sapiens, UniProt Q9UHI5); test: Inhibition of L-[14C]alanine uptake in HEK293-hLAT2 cells; type: cell-based; conditions: for Inhibition of LAT2-mediated L-[14C]alanine uptake (in words, rank order): 1 μM L-[14C]alanine, 1 min, compounds at 10, 30, 100 μM
T2 construct: expressed in transfected cells
T2 sequence (Q9UHI5 1-535): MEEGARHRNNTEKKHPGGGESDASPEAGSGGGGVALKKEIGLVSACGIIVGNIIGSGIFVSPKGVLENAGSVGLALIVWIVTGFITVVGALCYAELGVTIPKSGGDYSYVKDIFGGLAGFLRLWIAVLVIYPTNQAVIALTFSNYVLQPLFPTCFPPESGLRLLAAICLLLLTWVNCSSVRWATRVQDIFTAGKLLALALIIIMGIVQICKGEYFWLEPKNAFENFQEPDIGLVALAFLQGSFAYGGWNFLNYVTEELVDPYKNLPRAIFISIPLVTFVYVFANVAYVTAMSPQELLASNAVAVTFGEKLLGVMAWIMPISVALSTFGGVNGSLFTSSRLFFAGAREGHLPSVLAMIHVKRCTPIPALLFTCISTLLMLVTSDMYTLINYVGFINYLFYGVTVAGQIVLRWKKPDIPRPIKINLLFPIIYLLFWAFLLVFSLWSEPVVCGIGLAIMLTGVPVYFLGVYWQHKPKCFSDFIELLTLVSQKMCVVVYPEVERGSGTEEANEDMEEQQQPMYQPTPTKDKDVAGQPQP
T2 sequence (P08195 1-529 partner): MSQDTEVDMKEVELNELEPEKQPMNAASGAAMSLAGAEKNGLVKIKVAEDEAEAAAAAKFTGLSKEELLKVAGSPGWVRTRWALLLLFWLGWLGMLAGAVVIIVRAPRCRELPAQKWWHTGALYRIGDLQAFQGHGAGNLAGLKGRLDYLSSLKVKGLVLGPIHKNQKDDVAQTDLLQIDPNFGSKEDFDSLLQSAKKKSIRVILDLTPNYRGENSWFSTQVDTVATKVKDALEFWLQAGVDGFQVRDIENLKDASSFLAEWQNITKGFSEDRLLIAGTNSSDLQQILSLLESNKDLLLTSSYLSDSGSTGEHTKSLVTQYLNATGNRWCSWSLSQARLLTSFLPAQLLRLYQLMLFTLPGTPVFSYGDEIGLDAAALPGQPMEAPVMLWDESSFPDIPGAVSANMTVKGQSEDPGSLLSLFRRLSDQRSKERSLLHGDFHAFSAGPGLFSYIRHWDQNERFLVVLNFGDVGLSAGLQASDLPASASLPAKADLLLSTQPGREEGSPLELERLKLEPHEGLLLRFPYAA
Text: as §1, §2

human LAT1 [5] = target: T1, human LAT1; test: Efflux of pre-loaded L-[14C]leucine from HEK293-hLAT1 cells induced by extracellular compounds; type: cell-based; conditions: 1 min
Procedure: (§4) We evaluated the efflux of pre-loaded L-[^14C]leucine from LAT1 and pre-loaded L-[^14C]alanine from LAT2 induced by extracellularly applied compounds.
(§5) Efflux experiments were performed as described previously. Cells cultured 48 h were pre-loaded with 5 μM L-[^14C]leucine or L-[^14C]alanine for 10 min at 37 °C. The cells were then washed, and the efflux was induced by incubating cells for 1 min in either the absence or presence of non-radiolabeled test compounds at indicated concentrations. The efflux time of 1 min fell within the linear range of time-dependent substrate efflux mediated by LAT1 and LAT2 (Supplementary Fig. S2). Following incubation, the medium was collected and radioactivity was measured in both the medium and the cells. Efflux was quantified as the percentage of radioactivity released into the medium, calculated using the formula: radioactivity of medium/(radioactivity of medium + radioactivity of cells) × 100%.
(§6) The kinetic parameters for the efflux of L-[^14C]leucine or L-[^14C]alanine induced by various concentrations of extracellularly-applied test compounds were analyzed. The baseline efflux values—those obtained in the absence of test compounds—were subtracted from the values measured in the presence of the compounds. The resultant data were fitted to Michaelis–Menten kinetics to determine the Km and Vmax by nonlinear regression analysis using “enzyme kinetics-velocity as a function of substrate” module within GraphPad Prism software.

human LAT2 [6] = target: T2, human LAT2; test: Efflux of pre-loaded L-[14C]alanine from HEK293-hLAT2 cells induced by extracellular compounds; type: cell-based; conditions: 1 min
Procedure: as §4, §5, §6

[7] = LAT1, L-[14C]leucine efflux, mean ± S.E.M., n = 3

T1 sequence (Q01650 whole entry, one chain of several): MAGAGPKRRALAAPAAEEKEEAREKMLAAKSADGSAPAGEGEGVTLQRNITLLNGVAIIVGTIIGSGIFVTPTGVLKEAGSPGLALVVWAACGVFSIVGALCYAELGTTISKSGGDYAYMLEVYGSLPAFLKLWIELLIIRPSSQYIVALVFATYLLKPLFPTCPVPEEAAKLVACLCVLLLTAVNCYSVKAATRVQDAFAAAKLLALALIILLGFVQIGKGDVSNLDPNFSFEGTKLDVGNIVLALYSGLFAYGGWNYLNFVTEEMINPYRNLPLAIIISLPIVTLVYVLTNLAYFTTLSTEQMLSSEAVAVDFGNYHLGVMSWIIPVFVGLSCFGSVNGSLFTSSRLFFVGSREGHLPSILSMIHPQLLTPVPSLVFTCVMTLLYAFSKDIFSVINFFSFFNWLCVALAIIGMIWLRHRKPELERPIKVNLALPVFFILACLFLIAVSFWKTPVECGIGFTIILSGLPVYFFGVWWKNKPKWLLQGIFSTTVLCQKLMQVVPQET

Compound	Inhibition of LAT1-mediated L-[14C]leucine uptake (in words, rank order) (human LAT1 [1])	Inhibition of LAT2-mediated L-[14C]alanine uptake (in words, rank order) (human LAT2 [4])	other results
N[C@@H](Cc1ccccc1Cl)C(=O)O [2-Cl-Phe]	Phe < 2-Cl-Phe		
N[C@@H](Cc1ccc(O)cc1F)C(=O)O [2-F-Tyr, 2-Fluoro-L-tyrosine, reference compound]			Small intestine-to-plasma ratio (I/P) (in words) ([2]; 30 and 60 min after i.v., equimolar doses): considerably higher for 2-F-Tyr than for bicyclic-Phe; Concentration in tumor compared with plasma ([2]; i.v., normalized to tissue weight / plasma volume, 2-F-Tyr at 60 min): higher in the tumor than in plasma; Plasma concentration (in words) [3]: time-dependent decreases in plasma concentration
N[C@@H](Cc1ccccc1I)C(=O)O [2-I-Phe, 2-iodo-L-phenylalanine]	markedly inhibited and 2-Br-Phe < 2-I-Phe and inhibit	2-I-Phe = Phe	Ki (human LAT1 [1]; L-[14C]leucine uptake, HEK293-hLAT1, mean ± S.E.M., n = 3–4, read-out: Ki (μM) LAT1): 9.56 ± 1.67 µM; Ki ratio (LAT2/LAT1) (human LAT1 [1]; LAT1 selectivity, LAT2 Ki over LAT1 Ki): 9.16; Ki (human LAT2 [4]; L-[14C]alanine uptake, HEK293-hLAT2, mean ± S.E.M., n = 3–4, read-out: Ki (μM) LAT2): 87.6 ± 11.9 µM; Km (human LAT1 [5]; [7]): 2.79 ± 0.76 µM; Vmax of efflux (% radioactivity/min) (human LAT1 [5]; [7]): 7.62 ± 0.30 % radioactivity/min; LAT1-mediated L-[14C]leucine efflux induced (in words) (human LAT1 [5]; compounds at 10, 30, 100 μM): transported by LAT1 as substrates; Vmax of efflux (% radioactivity/min) (human LAT2 [6]; LAT2, L-[14C]alanine efflux, mean ± S.E.M., n = 3): 39.65 ± 0.44 % radioactivity/min; LAT2-mediated L-[14C]alanine efflux induced (in words) (human LAT2 [6]; compounds at 10, 30, 100 μM): comparable to that of Phe
N[C@@H](Cc1cccc(Br)c1)C(=O)O [3-Br-Phe, 3-Bromo-L-phenylalanine]	3-Cl-Phe < 3-Br-Phe	3-Cl-Phe < 3-Br-Phe	
N[C@@H](Cc1cccc(Cl)c1)C(=O)O [3-Cl-Phe]	3-F-Phe < 3-Cl-Phe	3-F-Phe < 3-Cl-Phe	

More lines, main results first:

Inhibition of LAT1-mediated L-[14C]leucine uptake (in words, rank order) (human LAT1 [1])	Inhibition of LAT2-mediated L-[14C]alanine uptake (in words, rank order) (human LAT2 [4])	Compound	other results
2-Cl-Phe < 2-Br-Phe		N[C@@H](Cc1ccccc1Br)C(=O)O [2-Br-Phe]	
2-F-Phe = Phe		N[C@@H](Cc1ccccc1F)C(=O)O [2-F-Phe]	
Phe < 3-F-Phe	Phe < 3-F-Phe	N[C@@H](Cc1cccc(F)c1)C(=O)O [3-F-Phe]	
